Like-named read-outs stand apart in the source and are kept apart here.
Assays:
domestic flies [1] = experiment: Insecticidal activity, large-scale test in living and industrial premises; type: in vivo; details: 0.25% solution with 5% glucose solution, 2-3 dishes per 20 m2; 72 hours
Experimental: The large-scale tests of the activity of the insecticidal composition, according to the invention, was conducted on domestic flies in living and industrial premises. Petri dishes containing a 0.25% aqueous solution of the insecticide, according to the invention, added with a 5% glucose solution, were put at a rate of 2-3 dishes per 20 m2. The .activity of the composition of the invention was estimated by a direct count of dead insects in 72 hours or by using the adhesive tapes, counting the number of flies on the tape prior and after carrying out the test.

mice and rats = details: cited from earlier work
domestic flies [2] = experiment: Insecticidal activity, laboratory test in gauze boxes; type: in vivo; details: 0.25% solution in 5% aqueous glucose solution; death rate estimated in 48 - 72 hours
Experimental: An insecticidal composition based thereon, which was a 0.25% solution of this compound in a 5% aqueous glucose solution, was prepared. The laboratory and large-scale tests of the activity of an insecticidal composition of the invention was conducted on domestic flies. for laboratory tests into the gauze-made boxes (10x10 cm, 6 boxes), there were placed 6-7-day flies of both sexes by 50 individuals per each box. Into 5 boxes there were placed Petri dishes containing the insecticidal composition of the invention. The death rate of flies was estimated-in 48 - 72 hours. A Petri dish containing a 5% aqueous solution of glucose was placed into the control box. The insecticidal activity of the composition, according to the invention, was tested in comparison with a known insecticidal composition containing 0,0-dimethyl-/1-hydroay-2,2-trichloroethyl/phosphonate.

helminthic ova = experiment: Ovocidal activity, large-scale disinfection of ambient objects; details: 3% aqueous solution; ambient objects (equipment, tableware, hands); read-out: % Death of ovigerms Tests large-scale
Experimental: Based on this compound, there was prepared the ovocidal composition in the form of 3% solution thereof. The ovocidal activity of the composition, according to the invention, was tested disinfection of ambient objects (equipment, tableware, hands). For this purpose, a 3% aqueous solution of the compound, according to the invention, was used for treating said objects. The. efficiency of the ovocidal action was determined by the number of helminthic ova in washings from the ambient objects before and after treating them with the ovocidal composition of the invention.

pig ascaride ovigerms = experiment: Ovocidal activity on watch glasses, 3% solution, laboratory test; type: in vivo; details: Sus scrofa, read-out: % Death of ovigerms Tests laboratory
Experimental: A drop of a suspension containing at least 1,000 ascarid ovigerms was placed onto watch glasses followed by adding one droplet of a 3% solution of the composition of the invention. Thereafter, they were put into a humid chamber of a thermostat at a temperature of 24-26 °C. In every 24 hours during 3 days the watch glasses with ascarid ova and the composition of the invention were withdrawn from the thermostat and washed with distilled water 2-3 times.
Then, the washed ascarid ovigerms were incubated for 30 days at a temperature of 24 - 26-°C. To determine the number of dead and viable ova, 200 ovigerms were observed by means of a microscope every 3 - 5 days. The death was determined by lack of ova development for 30 days up to the stage of a mobile larva and the presence of destructive morphological changes: shrinkage and deformation of embryos, rupture of shells. The known composition - carbathion was tested under the same conditions by adding a solvent. The percentage death of ova was estimated as a mean value of three results with a correction for ova death in the control and_in-comparison with the known composition.

pig ascarid ovigerms = experiment: Ovocidal activity on watch glasses, 2% solution; type: in vivo; details: concentration 2 %
Experimental: An ovocidal composition based on this compound was prepared in the form of a 2% solution thereof in distilled water. An ovocidal activity of the composition, according to the invention, was tested as follows.
A drop of a suspension containing at least 1.000 ascarid ovigerms was placed onto the watch glasses followed by adding thereto by 1 ml of the composition of the invention. Thereafter the watch glasses were put them into a humid chamber of a thermostat at a temperature of 24 - 26 °C. In every […] the watch glasses with ascarid ovigerms and with the composition of the invention were withdrawn from the thermostat and washed with distilled water for 2-3 times.
Then, the washed ascaride ovigerms were cultured for 30 days at a temperature of 24 - 26 °C. To determine the number of dead and viable ovigerms 200 ova were visualized under a microscope in every 3-5 days. Their death was determined by lack of the development of ovigerms up to the stage of larva and the.presence of destructive morphological changes for 30 days. An ovocidal activity of known composition based.on carbathion was determined by the same procedure. Control was carried out under the same conditions by adding a physiological saly solution. The death percentage of ova was estimated as a mean value of three results with the correction for death of ovigerms in the control and in comparison with the known compositions.

[3] = Solubility in water and organic solvents; type: physicochemical; details: qualitative, solvents named
[4] = tested on: invasion larvae of a root-knot nematode; experiment: Nematocidal activity, laboratory test; type: in vivo; details: Meloidogyne javanica; 1% solution in water; 24 hrs; read-out: Larva death, % Tests laboratory
Experimental: (§1) The process was carried out in manner similar to that described in Example 3. […] The insecticidal activity was tested in a manner similar to that described in Example 3. A nematocidal composition based on the compound.-was prepared which was its 1% solution in water. A nematocidal effect of the composition was tested in laboratory conditions to the invasion larvae of a root-knot nematode. For testing it, one drop of a suspension containing 100 invasion larvae of root-knot nematodes was placed onto the cover glasses having cells. Thereafter, one drop of the nematocidal composition of the invention was put thereto. One drop of distilled water instead of the test composition was placed into the control cell..The glasses with test and control cells were put on a moisten ashless filter of a Petri dish, and 24 hrs later the killed nematodes were registered. The tests were repeated three times. The nematocidal activity of the composition, according to the invention was tested in comparison with the known nematocidal preparation containing 0,0-dimethyl-0-2,2/dichlorovinyl/phosphate. The field tests were carried out at the 5 m^2 plots affected by tomato nematodes. For testing it, the plots were treated with the nematocidal composition of the invention and the known nematocidal composition.

tomato nematodes = experiment: Nematocidal activity, field test on 5 m2 plots; type: in vivo; details: 1% solution in water, read-out: Larva death, % Tests field
Experimental: as §1

poliomyelitis virus = experiment: microbe, parasite or virus in culture; type: cell-based, poliomyelitis-II virus; details: concentration 1 %
influenza A virus = experiment: microbe, parasite or virus in culture; design: species or system strain of influenza A1 virus; details: concentration 1 %
hepatitis B virus = experiment: Virucidal activity, suspension method under protein loading, counter-current immunoelectrophoresis; details: concentration 1 %
[5] = tested on: leaves of tomatoes and cucumbers; experiment: Phytotoxicity of the nematocidal composition; type: in vivo; details: 1% solution in water
[6] = 24 h, read-out: Death of ascarid ovigerms (%) in 24 h
[7] = 48 h, read-out: Death of ascarid ovigerms (%) in 48 h

Row | Molecule | Death of flies, % Tests large-scale (domestic flies [1]) [%] | Death of flies, % Tests laboratory (domestic flies [2]) [%] | killing at 3 % (helminthic ova) [%] | killing at 3 % (pig ascaride ovigerms) [%] | killing at 2 % (pig ascarid ovigerms; [6]) [%] | killing at 2 % (pig ascarid ovigerms; [7]) [%] | solubility [3] | killing at 1 % [4] [%] | mortality at 1 % (tomato nematodes) [%] | further results
1 | 0,0-dimethyl(1-hydroxy-2,2,2-trichloroethyl) phosphonate [Known insecticidal composition] | 83 | 85 |  |  |  |  |  |  |  | LDSO (mice and rats): 225 to 1200 mg/kg
2 | CNC(=S)S [carbathion, sodium N-methyldithiocarbamate dihydrate] |  |  | 59 | 60 | 60 | 80 |  |  |  | 
3 | O=C(N[C@H](COP(=NC(=O)C(Cl)(Cl)Cl)(OC[C@@H](NC(=O)C(Cl)Cl)[C@H](O)c1ccc([N+](=O)[O-])cc1)OC[C@@H](NC(=O)C(Cl)Cl)[C@H](O)c1ccc([N+](=O)[O-])cc1)[C@H](O)c1ccc([N+](=O)[O-])cc1)C(Cl)Cl [Example 7, d(-)--threo-3-para-nitrophenyl-2-dichloroacetamido-3-hydroxypro-poxyphosphazotrichloroacetyl] |  |  | 98 | 100 |  |  | soluble.in water, alcohols, acetone,--benzene, toluene |  |  | 
4 | COP(=O)(OC)OC=C(Cl)Cl [Known nematocidal preparation, 0,0-dimethyl-0-/2,2-dichlorovinyl/phosphate] |  |  |  |  |  |  |  | 88.1 | 76 | 
5 | O=C(N=P(OC(CCl)c1ccccc1)(OC(CCl)c1ccccc1)OC(CCl)c1ccccc1)c1ccccc1 (stereo not drawn) [Example 3, tris/2-chloro-1-phenylethoxy/phosphazobenzoyl] | 100 | 100 |  |  | 68.1 | 93.4 | soluble in water, alcohols, acetone, benzene, toluene | 100 | 100 | killing at 1 % (poliomyelitis virus; 10 min, 10 min, read-out: Death of viruses (%) under exposure, Poliomyelitis, 10 min): 20%; killing at 1 % (poliomyelitis virus; 0.5 h, 30 min, read-out: Death of viruses (%) under exposure, Poliomyelitis, 30 min): 50%; killing at 1 % (poliomyelitis virus; 1 h, 60 min, read-out: Death of viruses (%) under exposure, Poliomyelitis, 60 min): 70%; killing at 2 % (pig ascarid ovigerms; 72 h, read-out: Death of ascarid ovigerms (%) in 72 h): 100%; killing at 1 % (influenza A virus; 0.25 h, 15 min, read-out: Death of viruses (%) under exposure, Influenza A, 15 min): 30%; killing at 1 % (influenza A virus; 0.5 h, 30 min, read-out: Death of viruses (%) under exposure, Influenza A, 30 min): 50%; killing at 1 % (influenza A virus; 1 h, 60 min, read-out: Death of viruses (%) under exposure, Influenza A, 60 min): 100%; killing at 1 % (hepatitis B virus; 0.25 h, 15 min, read-out: Death of viruses (%) under exposure, Hepatitis B, 15 min): 75%; killing at 1 % (hepatitis B virus; 0.5 h, 30 min, read-out: Death of viruses (%) under exposure, Hepatitis B, 30 min): 100%; killing at 1 % (hepatitis B virus; 1 h, 60 min, read-out: Death of viruses (%) under exposure, Hepatitis B, 60 min): 100%; phytotoxic effects on the leaves of tomatoes and cucumbers [5]: no phytotoxic effects
